A word on the EC50: it is the concentration at which the effect is half-maximal.

The assay has as its target T1, human GPR119 (Homo sapiens, UniProt Q8TDV5).
T1 construct: expressed in transfected cells; host or cells: Flp-In-CHO cells (Invitrogen, Cat. #R758-07), stably transfected with pcDNA5/FRT-human GPR119 plus pOG44
T1 sequence (Q8TDV5 1-335): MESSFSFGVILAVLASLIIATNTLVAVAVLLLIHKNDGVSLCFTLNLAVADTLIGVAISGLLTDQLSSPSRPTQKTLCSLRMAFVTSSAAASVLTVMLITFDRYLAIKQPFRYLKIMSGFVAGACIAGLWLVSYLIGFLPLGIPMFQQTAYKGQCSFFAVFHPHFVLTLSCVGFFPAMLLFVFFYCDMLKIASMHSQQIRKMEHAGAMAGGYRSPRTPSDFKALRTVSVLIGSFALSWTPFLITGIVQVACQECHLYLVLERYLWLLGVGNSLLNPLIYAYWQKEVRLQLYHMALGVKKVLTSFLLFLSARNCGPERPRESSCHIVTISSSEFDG
As to the kind of experiment: Cyclic AMP assay in stable cell line (HTRF, Flp-In-CHO-hGPR119 cells). Particulars: increase in intracellular cAMP, 30 minutes at 37° C., 1 mM IBMX. The format is cell-based. Here is the method:
Flp-In-CHO cells (Invitrogen, Cat. #R758-07) are maintained in Ham's F12 medium supplemented with 10% fetal bovine serum, 1% antibiotic mixture and 2 mM L-glutamine. The cells are transfected with a DNA mixture containing human GPR119 in pcDNA5/FRT vector and the pOG44 vector (1:9) using Fugene6 (Roche), according to the manufacturer's instruction. After 48 h, the medium is changed to medium supplemented with 400 μg/ml hygromycin B to initiate the selection of stably transfected cells.
To test the activity of compounds of the invention, Flp-In-CHO-hGPR119 cells are harvested and resuspended in DMEM plus 3% lipid-depleted fetal bovine serum. Forth μl of cells are plated in 384 well plates at a density of 15,000 cells/well. IBMX (3-isobutyl-1-methyl-xanthine) is added to the cells to a final concentration of 1 mM, followed by the addition of 500 nl of the compound to be tested. The cells are incubated at 37° C. for 30 minutes. Equal volume (20 μl) of the HTRF reagents, anti-cAMP-Cryptate and cAMP-XL665, are added to the cells. The plates are incubated at rt for 1 h and read on a HTRF reader according to the manufacturer's instruction.
A general note: TR-FRET usually uses a lanthanide donor and a delayed reading to cut background.
With `CCc1cnc(N2CCC(COc3c(F)cc(-c4cnc(C(N)=O)nc4)cc3F)CC2)nc1` [Example A35], the EC50 is 9 nM.

`CC1(OC(=O)N2CCC(COc3c(F)cc(-c4cnc(C(=O)N5CC[C@H](O)C5)nc4)cc3F)CC2)CC1` [Example J19] came in with a 50% effective concentration (EC50) of 47 nM.

Regarding `CCc1cnc(N2CCC(COc3c(F)cc(-c4ccc(Cn5ccnc5)cc4)cc3F)CC2)nc1` [Example H4], it took 92 nM to reach a half-maximal effect (EC50).

Compound `CCc1cnc(N2CCC(COc3c(F)cc(-c4ccc(Cn5ncnn5)cc4)cc3F)CC2)nc1` [Example H5] had an EC50 of 28 nM.

Regarding `CCc1cnc(N2CCC(COc3c(F)cc(-c4ccc(CN(C)C(C)=O)cc4)cc3F)CC2)nc1` [Example L1, N-((4′-((1-(5-ethylpyrimidin-2-yl)piperidin-4-yl)methoxy)-3′,5′-difluorobiphenyl-4-yl)methyl)-N-methylacetamide], the EC50 is 62 nM.

Compound `CCCS(=O)(=O)c1ccc(-c2cc(F)c(OCC3CCN(C(=O)OC4(C)CC4)CC3)c(F)c2)c(C)n1` [Example F4, 1-methylcyclopropyl 4-((2,6-difluoro-4-(2-methyl-6-(propylsulfonyl)pyridin-3-yl)phenoxy)methyl)piperidine-1-carboxylate] showed an EC50 of 0.3 nM.

In turn, `COc1cc(-c2cc(F)c(OCC3CCN(C(=O)OC(C)(C)C)CC3)c(F)c2)ccn1` [Example A20] yielded an EC50 of 46 nM. Compared with the last compound, the EC50 is about 150-fold higher.

Compound `CCc1cnc(N2CCC(COc3c(F)cc(-c4ccc(S(C)(=O)=O)cc4)cc3F)CC2)nc1` [Example A6] registered an EC50 of 0.7 nM. This EC50 lies about 66-fold lower than the previous one.

`CCc1cnc(N2CCC(COc3c(F)cc(-c4cnn(C)c4)cc3F)CC2)nc1` [Example A24]: the concentration giving a half-maximal response (EC50) came to 258 nM. Compared with the last compound, the EC50 is about 370-fold higher.

The compound `CCc1cnc(N2CCC(COc3c(F)cc(-c4ccc(-c5cnco5)cc4)cc3F)CC2)nc1` [Example G1, 5-(4′-((1-(5-ethylpyrimidin-2-yl)piperidin-4-yl)methoxy)-3′,5′-difluorobiphenyl-4-yl)oxazole] had an EC50 of 3 nM.

For the compound `CCc1cnc(N2CCC(COc3c(F)cc(-c4cccc(Cc5nnn(C)n5)c4)cc3F)CC2)nc1` [Example C5], the EC50 is 22 nM. This EC50 is about 7.3-fold higher than that of the compound before.

`CCc1cnc(N2CCC(COc3c(F)cc(-c4ccc(S(C)(=O)=O)cn4)cc3F)CC2)nc1` [Example A1, 2-(4-((2,6-difluoro-4-(5-(methylsulfonyl)pyridin-2-yl)phenoxy)methyl)piperidin-1-yl)-5-ethylpyrimidine] showed an EC50 of 1 nM.

Turning to `CC1(OC(=O)N2CCC(COc3c(F)cc(-c4cnc(C(=O)NCCCO)nc4)cc3F)CC2)CC1` [Example J15], the EC50 worked out at 45 nM.

The compound `CC1(OC(=O)N2CCC(COc3c(F)cc(-c4cnc5[nH]c(=O)oc5c4)cc3F)CC2)CC1` [Example J11] came in with an EC50 of 263 nM. This EC50 lies about 5.8-fold higher than the previous one.

In turn, `CN1CCN(C(=O)c2ncc(-c3cc(F)c(OCC4CCN(C(=O)OC5(C)CC5)CC4)c(F)c3)cn2)CC1` [Example J12] returned a half-maximal effective concentration (EC50) of 14 nM. Against the preceding compound, the EC50 is about 19-fold lower.

Compound `CC1(OC(=O)N2CCC(COc3c(F)cc(-c4ccc(S(C)(=O)=O)cc4)cc3F)CC2)CC1` [Example D1, 1-methylcyclopropyl 4-((3,5-difluoro-4′-(methylsulfonyl)biphenyl-4-yloxy)methyl)piperidine-1-carboxylate] yielded an EC50 of 1 nM. Against the preceding compound, the EC50 is about 14-fold lower.

Consider `CCc1cnc(N2CCC(COc3c(F)cc(-c4cnc(N5CCCC5)nc4)cc3F)CC2)nc1` [Example A16], for which the EC50 was 171 nM.

Regarding `CCCS(=O)(=O)c1ccc(-c2cc(F)c(OCC3CCN(C(=O)OC(C)CC)CC3)c(F)c2)c(C)n1` (stereo not shown) [Example F6, sec-butyl 4-((2,6-difluoro-4-(2-methyl-6-(propylsulfonyl)pyridin-3-yl)phenoxy)methyl)piperidine-1-carboxylate], the EC50 was 1 nM.

Compound `CCc1cnc(N2CCC(COc3c(F)cc(-c4ccc(CO)cc4)cc3F)CC2)nc1` [Example A14] returned a concentration for a half-maximal effect (EC50) of 5 nM.

Take `CCc1cnc(N2CCC(COc3c(F)cc(-c4ccc(-c5nnn(C)n5)cc4)cc3F)CC2)nc1` [Example C1, 2-(4-((3,5-difluoro-4′-(2-methyl-2H-tetrazol-5-yl)biphenyl-4-yloxy)methyl)piperidin-1-yl)-5-ethylpyrimidine]: the concentration for a half-maximal effect (EC50) was found to be 5 nM. This counts as single-digit nanomolar.

Compound `CCc1cnc(N2CCC(COc3c(F)cc(-c4ccc(S(=O)(=O)CC5(C)COC5)cc4)cc3F)CC2)nc1` [Example A3, 2-(4-((3,5-difluoro-4′-((3-methyloxetan-3-yl)methylsulfonyl)biphenyl-4-yloxy)methyl)piperidin-1-yl)-5-ethylpyrimidine] showed an EC50 of 0.7 nM. Against the preceding compound, the EC50 is about 7.1-fold lower.

Compound `CCc1cnc(N2CCC(COc3c(F)cc(-c4ccc(-c5nn[nH]n5)nc4)cc3F)CC2)nc1` [Example B5] had an EC50 of 79 nM.

For the compound `CC1(OC(=O)N2CCC(COc3c(F)cc(-c4cnc(C(=O)N5CCC(O)CC5)nc4)cc3F)CC2)CC1` [Example J1], the EC50 was 13 nM.

`CCc1cnc(N2CCC(COc3c(F)cc(-c4ccc(C(C)(C)O)nc4)cc3F)CC2)nc1` [Example A38] came in with an EC50 of 29 nM.

Regarding `CCc1cnc(N2CCC(COc3c(F)cc(-c4ccc(S(C)(=O)=O)nc4)cc3F)CC2)nc1` [Example A22], the response was half-maximal at 2 nM (EC50).

`CCOC(=O)CCNC(=O)c1ncc(-c2cc(F)c(OCC3CCN(C(=O)OC4(C)CC4)CC3)c(F)c2)cn1` [Example J8] registered an EC50 of 10 nM. This EC50 lies about 5-fold higher than the previous one.

For the compound `CC1(OC(=O)N2CCC(COc3c(F)cc(-c4ccc(C5(N)CC5)nc4)cc3F)CC2)CC1` [Example A39], the EC50 was determined as 37 nM.

`CC(C)(C)OC(=O)N1CCC(COc2c(F)cc(-c3cc[n+]([O-])cc3)cc2F)CC1` [Example E1, 4-(4-((1-(tert-butoxycarbonyl)piperidin-4-yl)methoxy)-3,5-difluorophenyl)pyridine 1-oxide] showed an EC50 of 38 nM.

For `CCc1cnc(N2CCC(COc3c(F)cc(-c4cnn(CCN(C)C)c4)cc3F)CC2)nc1` [Example K1, 2-(4-(4-((1-(5-ethylpyrimidin-2-yl)piperidin-4-yl)methoxy)-3,5-difluorophenyl)-1H-pyrazol-1-yl)-N,N-dimethylethanamine], the concentration for a half-maximal effect (EC50) was determined as 2070 nM.

`CCN(CCO)C(=O)c1ncc(-c2cc(F)c(OCC3CCN(C(=O)OC4(C)CC4)CC3)c(F)c2)cn1` [Example J5] yielded an EC50 of 19 nM.

Regarding `CCc1cnc(N2CCC(COc3c(F)cc(-c4ccc(-n5cncn5)nc4C)cc3F)CC2)nc1` [Example F1, 2-(4-((2,6-difluoro-4-(2-methyl-6-(1H-1,2,4-triazol-1-yl)pyridin-3-yl)phenoxy)methyl)piperidin-1-yl)-5-ethylpyrimidine], the EC50 came out at 0.5 nM.

For the origin of these results see patent publication US8334288B2, “4-phenoxymethylpiperidines as modulators of GPR119 activity” (IRM LLC, priority 2008, dated 2012).
